Reference: patent US20250179073A1, “TRICYCLIC HETEROCYCLE COMPOUNDS AS IAP ANTAGONISTS” (Ascentage Pharma (Suzhou) Co., Ltd., priority 2022, published 2025)

How the values were obtained:
[1] = test system: MDA-MB-231 cells; assay: Cell proliferation assay (CellTiter-Glo), MDA-MB-231; format: cell-based; conditions: 72 h treatment, Celltiter-Glo luminescence
Procedure, shortened: (§1)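 Compounds tested over ten concentrations ([…]) for 72 h on EVSA-T cells in MEM/10% FBS and MDA-MB-231 cells in RPMI-1640/10% FBS, seeded at 10000/well. Luminescent CellTiter-Glo readout; IC50 fitted after normalisation to controls.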

[2] = test system: EVSA-T cells; assay: Cell proliferation assay (CellTiter-Glo), EVSA-T; format: cell-based; conditions: 72 h treatment, Celltiter-Glo luminescence
Procedure, shortened: as §1

SMILES	IC50 ([1]; Homo sapiens, MDA-MB-231, 72 h)	IC50 ([2]; Homo sapiens, EVSA-T, 72 h)	IC50 [1]	IC50 [2]
C[C@@H]1CN(CC(=O)N2CC(C)(C)c3c2cc(Cc2ccc(F)cc2)c2nn(C(C)(C)CO)c(=O)n32)[C@@H](CN2CCOC[C@H]2C)CN1 [Compound 260, 4-(4-fluorobenzyl)-2-(1-hydroxy-2-methylpropan-2-yl)-8,8-dimethyl-6-(2-((2R,5R)-5-methyl-2-(((R)-3-methylmorpholino)methyl)piperazin-1-yl)acetyl)-2,6,7,8-tetrahydro-1H-pyrrolo[2,3-e][1,2,4]triazolo[4,3-a]pyridin-1-one]	29 nM	2.7 nM		
C[C@@H]1CN(CC(=O)N2CC(C)(C)c3c2cc(Cc2cccc(F)c2)c2ncnn32)[C@@H](CN2CCOC[C@H]2C)CN1 [Compound 39, 1-(4-(3-fluorobenzyl)-8,8-dimethyl-7,8-dihydro-6H-pyrrolo[2,3-e][1,2,4]triazolo[1,5-a]pyridin-6-yl)-2-((2R,5R)-5-methyl-2-(((R)-3-methylmorpholino)methyl)piperazin-1-yl)ethan-1-one]	150 nM	34 nM		
C[C@@H]1CN(CC(=O)N2CC(C)(C)c3c2cc(Cc2ccc(F)cc2)c2nn(CCO)c(=O)n32)[C@@H](CN2CCOC[C@H]2C)CN1 [Compound 201, 4-(4-fluorobenzyl)-2-(2-hydroxyethyl)-8,8-dimethyl-6-(2-((2R,5R)-5-methyl-2-(((R)-3-methylmorpholino)methyl)piperazin-1-yl)acetyl)-2,6,7,8-tetrahydro-1H-pyrrolo[2,3-e][1,2,4]triazolo[4,3-a]pyridin-1-one]	26 nM	11 nM		
C[C@@H]1CN(CC(=O)N2CC(C)(C)c3c2cc(Cc2ccc(F)cc2)c2ncnn32)[C@@H](CN2Cc3c(F)cccc3C2=O)CN1 [Compound 99, 4-fluoro-2-(((2R,5R)-1-(2-(4-(4-fluorobenzyl)-8,8-dimethyl-7,8-dihydro-6H-pyrrolo[2,3-e][1,2,4]triazolo[1,5-a]pyridin-6-yl)-2-oxoethyl)-5-methylpiperazin-2-yl)methyl)isoindolin-1-one]	12 nM	5 nM		
C[C@@H]1CN(CC(=O)N2CC(C)(C)c3c2cc(Cc2ccc(F)cc2)c2nc(N4CCN(C)C4=O)nn32)[C@@H](CN2CCOC[C@H]2C)CN1 [Compound 235, 1-(4-(4-fluorobenzyl)-8,8-dimethyl-6-(2-((2R,5R)-5-methyl-2-(((R)-3-methylmorpholino)methyl)piperazin-1-yl)acetyl)-7,8-dihydro-6H-pyrrolo[2,3-e][1,2,4]triazolo[1,5-a]pyridin-2-yl)-3-methylimidazolidin-2-one]	38 nM	1.3 nM		
C[C@@H]1CN(CC(=O)N2CC(C)(C)c3c2cc(Cc2ccc(F)cc2)c2nn(CC4(O)CCC4)c(=O)n32)[C@@H](CN2CCOC[C@H]2C)CN1 [Compound 262, 4-(4-fluorobenzyl)-2-((1-hydroxycyclobutyl)methyl)-8,8-dimethyl-6-(2-((2R,5R)-5-methyl-2-(((R)-3-methylmorpholino)methyl)piperazin-1-yl)acetyl)-2,6,7,8-tetrahydro-1H-pyrrolo[2,3-e][1,2,4]triazolo[4,3-a]pyridin-1-one]	12.5 nM	1.3 nM		
CC(C)c1nnc2c(Cc3ccc(F)cc3)cc3c(n12)C(C)(C)CN3C(=O)CN1C[C@@H](C)NC[C@@H]1CN1CCOC[C@H]1C [Example 11, 1-(4-(4-fluorobenzyl)-1-isopropyl-8,8-dimethyl-7,8-dihydro-6H-pyrrolo[2,3-e][1,2,4]triazolo[4,3-a]pyridin-6-yl)-2-((2R,5R)-5-methyl-2-(((R)-3-methylmorpholino)methyl)piperazin-1-yl)ethan-1-one]	170 nM	10 nM		
C[C@@H]1CN(CC(=O)N2CC(C)(C)c3c2cc(Cc2ccc(F)cc2)c2nc(C4(O)CC4)nn32)[C@@H](CN2CCOC[C@H]2C)CN1 [Compound 244, 1-(4-(4-fluorobenzyl)-2-(1-hydroxycyclopropyl)-8,8-dimethyl-7,8-dihydro-6H-pyrrolo[2,3-e][1,2,4]triazolo[1,5-a]pyridin-6-yl)-2-((2R,5R)-5-methyl-2-(((R)-3-methylmorpholino)methyl)piperazin-1-yl)ethan-1-one]	3 nM	4.6 nM		
COCCn1nc2c(Cc3ccc(F)cc3)cc3c(n2c1=O)C(C)(C)CN3C(=O)CN1C[C@@H](C)NC[C@@H]1CN1CCOC[C@H]1C [Compound 227, 4-(4-fluorobenzyl)-2-(2-methoxyethyl)-8,8-dimethyl-6-(2-((2R,5R)-5-methyl-2-(((R)-3-methylmorpholino)methyl)piperazin-1-yl)acetyl)-2,6,7,8-tetrahydro-1H-pyrrolo[2,3-e][1,2,4]triazolo[4,3-a]pyridin-1-one]	82 nM	2 nM		
C[C@@H]1CN(CC(=O)N2CC(C)(C)c3c2cc(Cc2ccc(F)cc2)c2nc(C(F)(F)F)cn32)[C@@H](CN2CCOC[C@H]2CF)CN1 [Compound 167, 1-(4-(4-fluorobenzyl)-8,8-dimethyl-2-(trifluoromethyl)-7,8-dihydro-6H-imidazo[1,2-a]pyrrolo[2,3-e]pyridin-6-yl)-2-((2R,5R)-2-((3-(fluoromethyl)morpholino)methyl)-5-methylpiperazin-1-yl)ethan-1-one]	120 nM	16 nM		
C[C@@H]1CN(CC(=O)N2CC(C)(C)c3c2cc(Cc2ccc(F)cc2)c2nc(N4CC(O)C4)nn32)[C@@H](CN2CCOC[C@H]2C)CN1 [Compound 159, 1-(4-(4-fluorobenzyl)-2-(3-hydroxyazetidin-1-yl)-8,8-dimethyl-7,8-dihydro-6H-pyrrolo[2,3-e][1,2,4]triazolo[1,5-a]pyridin-6-yl)-2-((2R,5R)-5-methyl-2-(((R)-3-methylmorpholino)methyl)piperazin-1-yl)ethan-1-one]	20 nM	4 nM		
C[C@@H]1CN(CC(=O)N2CC(C)(C)c3c2cc(Cc2ccc(F)cc2)c2nc(-c4cncnc4)nn32)[C@@H](CN2CCOC[C@H]2C)CN1 [Compound 184, 1-(4-(4-fluorobenzyl)-8,8-dimethyl-2-(pyrimidin-5-yl)-7,8-dihydro-6H-pyrrolo[2,3-e][1,2,4]triazolo[1,5-a]pyridin-6-yl)-2-((2R,5R)-5-methyl-2-(((R)-3-methylmorpholino)methyl)piperazin-1-yl)ethan-1-one]	17 nM	6 nM		
C[C@@H]1CN(CC(=O)N2CC(C)(C)c3c2cc(Cc2ccc(F)cc2)c2nc(N4C[C@@H](O)[C@@H](O)C4)nn32)[C@@H](CN2CCOC[C@H]2C)CN1 [Compound 229, 1-(2-((3R,4S)-3,4-dihydroxypyrrolidin-1-yl)-4-(4-fluorobenzyl)-8,8-dimethyl-7,8-dihydro-6H-pyrrolo[2,3-e][1,2,4]triazolo[1,5-a]pyridin-6-yl)-2-((2R,5R)-5-methyl-2-(((R)-3-methylmorpholino)methyl)piperazin-1-yl)ethan-1-one]	76 nM	7 nM		
C[C@@H]1CN(CC(=O)N2CC(C)(C)c3c2cc(Cc2ccc(F)cc2)c2nn(C4CCC4O)c(=O)n32)[C@@H](CN2CCOC[C@H]2C)CN1 (stereo partly drawn) [Compound 273B, 4-(4-fluorobenzyl)-2-(2-hydroxycyclobutyl)-8,8-dimethyl-6-(2-((2R,5R)-5-methyl-2-(((R)-3-methylmorpholino)methyl)piperazin-1-yl)acetyl)-2,6,7,8-tetrahydro-1H-pyrrolo[2,3-e][1,2,4]triazolo[4,3-a]pyridin-1-one]			14 nM	1.7 nM
